Test results from patent US9771378B2 (Denali Therapeutics, Inc., priority 2014, dated 2017).

System: Aβ42 (human neuroglioma H4 cells expressing human wild type APP751)
Assay: In vitro cell screening assay with sandwich ELISA quantification of Aβ42 peptide
Type: cell-based
Settings: H4 cells stably expressing human wild type APP751; Pro293 chemically defined medium; compounds 0.003-10 μM; incubated overnight (16-18 h); supernatant Aβ42 by sandwich ELISA; normalized to DMSO and DAPT; read-out: Aβ42 H4 Prot Fre IC50
Protocol: Human neuroglioma H4 cells were transfected with a pcDNA3.1 plasmid expressing human wild type APP751 cDNA and a stable cell line was generated using G418 selection. Cells are plated at 15,000 cells/well in Costar 96-well plates and placed at 37° C. and 5% CO2. Six hours after plating, cells are washed three times with Pro293™ chemically defined medium, followed by addition of compounds (0.003-10 μM, final DMSO concentration of 0.33%). Plates were incubated overnight (16-18 h) and supernatant was removed for quantification of AP peptides by sandwich ELISA. Cytotoxicity was evaluated using Cell-Titer 96W AQueous One Solution Cell Proliferation Assay according to the manufacturer's protocol.
ELISA Measurements of Aβ Peptides
Aβ peptide levels were quantified by sandwich ELISA. 96-well plates are coated with C-terminal specific Aβ antibodies recognizing either Aβ37, Aβ38, Aβ40, Aβ42, Aβ43 or a N-terminal specific Aβ antibody to detect Aβ 1-x. Plates are then blocked overnight at 4° C. with 1% bovine serum albumin (BSA) in PBS-T. Plates are washed and 100 μl of cultured cell supernatant or synthetic Aβ peptide standards and a detection antibody (4G8-HRP) are applied to the blocked plate and incubated overnight at 4° C. The next day, wells are washed before the addition […] of detection substrate (TMB peroxidase). Plates are then read for absorbance at 450 nm on a Molecular Devices SpectraMax M5e Microplate Reader.
IC50 values were calculated from values reported as percent of DMSO controls using nonlinear regression, based on a sigmoidal dose-response (variable slope) model. GraphPAD software from Prism used for calculation.

| SMILES | IC50 |
| --- | --- |
| Cc1cn(-c2ccc(Nc3ncc4c(n3)N(C)C(c3ccccc3OC(F)(F)F)CO4)cc2F)cn1 (single isomer, unassigned; (+)) [Example 64A] | 402 nM |
| COc1cc(Nc2ncc3c(n2)N(C)C2(COC2)CO3)cnc1-n1cnc(C)c1 [Example 272] | 537 nM |
| COc1cc(Nc2ncc3c(n2)N(C)C(c2ccc(F)cc2Cl)CO3)ccc1-n1cnc(C)c1 (racemic) [Example 53] | 37 nM |
| COc1cc(Nc2ncc3c(n2)N(C)C(c2ccccc2OC(F)(F)F)CO3)ccc1-c1ccnc(C)c1 (single isomer, unassigned; (+)) [Example 62B] | 165 nM |
| Cc1cn(-c2ccc(Nc3ncc4c(n3)N(C)C(C)CO4)cc2C#N)cn1 (single isomer, unassigned; (+)) [Example 205A, (+)-5-((7,8-dimethyl-7,8-dihydro-6H-pyrimido [5,4-b] [1, 4]oxazin-2-yl)amino)-2-(4-methyl-1H-imidazol-1-yl) benzonitrile] | 231 nM |
| COc1cc(Nc2ncc3c(n2)N(C)C2(CCCC2)CO3)cnc1-n1cnc(C)c1 [Example 259] | 73 nM |
| COc1cc(Nc2ncc3c(n2)N(C)C(c2ccc(F)cc2)CO3)ccc1-n1cnc(C)c1 (racemic) [Example 49] | 36 nM |
| COc1cc(Nc2ncc3c(n2)N(C)C(c2cc(F)c(F)cc2F)CO3)ccc1-n1cnc(C)c1 (single isomer, unassigned; (+)) [Example 97B] | 13 nM |
| Cc1cc(-c2ccc(Nc3ncc4c(n3)N(C)C(Cc3ccccc3)CO4)cc2F)ccn1 (single isomer, unassigned; (+)) [Example 57A] | 118 nM |
| Cc1cn(-c2ccc(Nc3ncc4c(n3)N(C)C(c3cc(F)cc(F)c3)CO4)cc2C(F)F)cn1 (single isomer, unassigned; (+)) [Example 222A] | 361 nM |
| COc1nc(Nc2ncc3c(n2)N(C)C(c2cc(F)cc(F)c2)CO3)ccc1-c1cnn(C)c1 (single isomer, unassigned; (+)) [Example 184B] | > 3000 nM |
| COc1ccc(C)c(C2COc3cnc(Nc4ccc(-n5cnc(C)c5)c(OC)c4)nc3N2C)c1 (racemic) [Example 90] | 27 nM |
| COc1cc(Nc2ncc3c(n2)N(C)C(Cc2ccccc2)CO3)ccc1-n1cnc(C)c1 (single isomer, unassigned; (+)) [Example 47A] | 23 nM |
| COc1cc(Nc2ncc3c(n2)N(C)C2(CO3)CC(F)(F)C2)ccc1-n1cnc(C)c1 [Example 276] | 56 nM |
| COc1cc(Nc2ncc3c(n2)N(C)C(c2ccc(F)cc2C)CO3)ccc1-n1cnc(C)c1 (racemic) [Example 54] | 75 nM |
| Cc1cn(-c2ccc(Nc3ncc4c(n3)N(C)C(C)CO4)cc2C(F)F)cn1 (single isomer, unassigned; (-)) [Example 214B] | 2260 nM |
| Cc1cn(-c2ccc(Nc3ncc4c(n3)N(C)C(C(F)(F)F)CO4)cc2C#N)cn1 (single isomer, unassigned; (-)) [Example 232B, (−)-2-(4-methyl-1H-imidazol-1-yl)-5-((8-methyl-7-(trifluoromethyl)-7,8-dihydro-6H-pyrimido [5,4-b] [1, 4]oxazin-2-yl)amino) benzonitrile] | 17 nM |
| COc1cc(Nc2ncc3c(n2)N(C)C(C(F)(F)F)CO3)ncc1-n1cnc(C)c1 (single isomer, unassigned; (-)) [Example 236B] | 245 nM |
| Cc1cn(-c2ccc(Nc3ncc4c(n3)N(C)C3(CCCC3)CO4)cc2F)cn1 [Example 279] | 254 nM |
| COc1cc(Nc2ncc3c(n2)N(C)C(c2ccc(F)cc2F)CO3)cnc1-n1cnc(C)c1 (single isomer, unassigned; (+)) [Example 186A] | 18 nM |
| COc1ccc(Cl)c(C2COc3cnc(Nc4ccc(-n5cnc(C)c5)c(OC)c4)nc3N2C)c1 (single isomer, unassigned; (+)) [Example 167A] | 22 nM |
| COc1cc(Nc2ncc3c(n2)N(C)C(C2(C(F)(F)F)CC2)CO3)ccc1-n1cnc(C)c1 (single isomer, unassigned; (-)) [Example 245A] | 216 nM |
| Cc1cn(-c2ccc(Nc3ncc4c(n3)N(C)C(c3cc(F)c(F)cc3F)CO4)cc2F)cn1 (single isomer, unassigned; (+)) [Example 98A] | 20 nM |

| SMILES | IC50 |
| --- | --- |
| COc1cc(Nc2ncc3c(n2)N(C)C(c2ccccc2C(F)(F)F)CO3)ccc1-n1cnc(C)c1 (racemic) [Example 55] | 37 nM |
| Cc1cn(-c2ccc(Nc3ncc4c(n3)N(C)C(c3cc(F)c(F)cc3Cl)CO4)cc2F)cn1 (single isomer, unassigned; (-)) [Example 169B] | 2260 nM |
| COc1cc(Nc2ncc3c(n2)N(C)C(c2ccc(F)cc2)CO3)ccc1-c1ccnc(C)c1 (single isomer, unassigned; (+)) [Example 61B] | 58 nM |
| COc1ccc(Cl)c(C2COc3cnc(Nc4ccc(-n5cnc(C)c5)c(OC)c4)nc3N2C)c1 (racemic) [Example 87] | 42 nM |
| COc1ccc(C2COc3cnc(Nc4ccc(-n5cnc(C)c5)c(OC)c4)nc3N2C)c(C)c1 (single isomer, unassigned; (-)) [Example 199B] | 95 nM |
| COc1cc(Nc2ncc3c(n2)N(C)C(C(F)(F)F)CO3)cnc1-n1cnc(C)c1 (single isomer, unassigned; (-)) [Example 193B] | 35 nM |
| COc1cc(Nc2ncc3c(n2)N2CCC[C@@]2(C)CO3)ccc1-n1cnc(C)c1 [Example 291, (S)-N-(3-methoxy-4-(4-methyl-1H-imidazol-1-yl)phenyl)-6a-methyl-6a, 7,8,9-tetrahydro-6H-pyrimido [5,4-b] pyrrolo [1,2-d] [1, 4] oxazin-2-amine] | 131 nM |
| Cc1cn(-c2ccc(Nc3ncc4c(n3)N(C)C(c3ccc(Cl)cc3C(F)(F)F)CO4)cc2F)cn1 (single isomer, unassigned; (+)) [Example 106A] | 154 nM |
| COc1cc(Nc2ncc3c(n2)N(C)C(C(F)(F)F)CO3)ccc1C#N (single isomer, unassigned; (+)) [Example 230A, (+)-2-methoxy-4-((8-methyl-7-(trifluoromethyl)-7,8-dihydro-6H-pyrimido [5,4-b] [1, 4]oxazin-2-yl)amino) benzonitrile] | > 3000 nM |
| COc1cc(Nc2ncc3c(n2)N(C)C(C)CO3)ccc1-n1cnc(C)c1 (single isomer, unassigned; (-)) [Example 116A] | 148 nM |
| COc1cc(Nc2ncc3c(n2)N(C)C(c2ccccc2C(F)(F)F)CO3)ccc1-c1ccnc(C)c1 (single isomer, unassigned; (-)) [Example 70A] | 339 nM |
| Cc1cn(-c2ccc(Nc3ncc4c(n3)N(C)C(C)CO4)cc2F)cn1 (single isomer, unassigned; (-)) [Example 108A] | 567 nM |
| COc1cc(Nc2ncc3c(n2)N(C)C(C)CO3)ccc1-c1ccnc(C)c1 (single isomer, unassigned; (+)) [Example 110B] | 91 nM |
| Cc1cn(-c2ccc(Nc3ncc4c(n3)N(C)C(c3cc(F)cc(F)c3)CO4)cc2C#N)cn1 (single isomer, unassigned; (-)) [Example 203B, (−)-5-((7-(3,5-difluorophenyl)-8-methyl-7,8-dihydro-6H-pyrimido [5,4-b] [1, 4]oxazin-2-yl)amino)-2-(4-methyl-1H-imidazol-1-yl) benzonitrile] | 210 nM |
| Cc1cn(-c2ccc(Nc3ncc4c(n3)N(C)C(c3ccc(F)cc3)CO4)cc2F)cn1 (single isomer, unassigned; (+)) [Example 58A] | 28 nM |
| COc1cc(Nc2ncc3c(n2)N(C)C(C2CCOCC2)CO3)ccc1-n1cnc(C)c1 (racemic) [Example 50] | 173 nM |
| COc1ccc(Cl)c(C2COc3cnc(Nc4cnc(-n5cnc(C)c5)c(OC)c4)nc3N2C)c1 (single isomer, unassigned; (+)) [Example 208A] | 20 nM |
| Cc1cn(-c2ccc(Nc3ncc4c(n3)N(C)C(C)CO4)cn2)cn1 (single isomer, unassigned; (-)) [Example 194B] | > 3000 nM |
| Cc1cn(-c2ccc(Nc3ncc4c(n3)N(C)C3(CCCC3)CO4)nc2)cn1 [Example 263] | > 3000 nM |
| COc1cc(Nc2ncc3c(n2)N(C)C(c2cc(F)cc(F)c2)CO3)ccc1-n1cnc(C)c1 (single isomer, unassigned; (+)) [Example 30B] | 23 nM |
| COc1cc(Cl)c(C2COc3cnc(Nc4ccc(-n5cnc(C)c5)c(OC)c4)nc3N2C)cc1Cl (racemic) [Example 89] | 23 nM |
| Cc1cn(-c2ccc(Nc3ncc4c(n3)N(C)C(c3cc(F)cc(F)c3)CO4)cc2OC(F)(F)F)cn1 (single isomer, unassigned; (-)) [Example 223A] | > 3000 nM |
| Cc1cn(-c2ccc(Nc3ncc4c(n3)N(C)C(C)CO4)cc2F)cn1 (single isomer, unassigned; (+)) [Example 108B] | 108 nM |
